Results reported in patent publication US11779630B2, “Peptides and methods of using the same” (SERPIN PHARMA, LLC, priority 2020, dated 2023).

Key:
NFκB = NFκB reporter assay (THP1-XBlue-MD2-CD14 cells) stimulated with LPS, SEAP readout; details: peptide 50 μg/ml, LPS 5 ng/ml, overnight (FIG. 1)
mice, lethal endotoxemia = test: Mouse model of lethal endotoxemia (LPS 15 mg/kg); format: in vivo
Description: FIG. 27A: The mice were treated with SP16 or vehicle and challenged with a lethal dose of LPS (15 mg/kg) and assessed for survival over 72 hours.

## R R R V R F N R P F L R R R (RRRVRFNRPFLRRR; peptide derivative) [SP32]
NFκB
  NFκB activity (NFκB inducible SEAP in supernatant): could not be restored with the Poly arginine flanks

## V K F N K P F V F L M I E Q N T K (VKFNKPFVFLMIEQNTK; listed as Homo sapiens) [SP16]
mice, lethal endotoxemia
  survival between 30 and 42 hours: 100%
mice, lethal endotoxemia; p<0.001 vs. vehicle
  survival by 72-hrs: 60%
NFκB
  NFκB activity (NFκB inducible SEAP in supernatant): capable of reducing NFκB activity

## R R R V K F N K P F V F L M R R R (RRRVKFNKPFVFLMRRR; peptide derivative) [SP22]
NFκB
  NFκB activity (NFκB inducible SEAP in supernatant): NFκB activity was significantly reduced

## RRRVKFNKPFVFLMIEQNTKRRR (RRRVKFNKPFVFLMIEQNTKRRR; peptide derivative) [SP21]
NFκB
  NFκB activity (NFκB inducible SEAP in supernatant): NFkB inhibition increased as well relative to SP16

## V R F N R P F L (VRFNRPFL; peptide derivative) [SP31]
NFκB
  NFκB activity (NFκB inducible SEAP in supernatant): anti-inflammatory activity of the peptide was lost

## V K F N K P F V F L M (VKFNKPFVFLM; listed as Homo sapiens) [SP20]
NFκB
  NFκB activity (NFκB inducible SEAP in supernatant): did not have an inhibitory effect
